Source: patent US11247985B2, “Phenyl indole allosteric inhibitors of P97 ATPase” (University of Pittsburgh—Of the Commonwealth System of …, priority 2015, dated 2022)

Molecular target: p97 ATPase WT (Homo sapiens (Human), UniProt P55072)
Experiment: p97 ADP-Glo assay
Assay type: biochemical
Details: Table 3; read-out: ADPGlo IC50
Source text: ADP-Glo™ (Promega Corp.) is a bioluminescent, homogeneous assay that measures ADP formed from a biochemical reactions. Because of its high sensitivity, the assay is suitable for monitoring enzyme activities at very early substrate conversions requiring very low amount of enzymes.
The ADP-Glo assay can be conducted as described in Chou, T.-F.; Bulfer, S. L.; Weihl, C.

Chain of p97 ATPase WT (P55072 whole entry): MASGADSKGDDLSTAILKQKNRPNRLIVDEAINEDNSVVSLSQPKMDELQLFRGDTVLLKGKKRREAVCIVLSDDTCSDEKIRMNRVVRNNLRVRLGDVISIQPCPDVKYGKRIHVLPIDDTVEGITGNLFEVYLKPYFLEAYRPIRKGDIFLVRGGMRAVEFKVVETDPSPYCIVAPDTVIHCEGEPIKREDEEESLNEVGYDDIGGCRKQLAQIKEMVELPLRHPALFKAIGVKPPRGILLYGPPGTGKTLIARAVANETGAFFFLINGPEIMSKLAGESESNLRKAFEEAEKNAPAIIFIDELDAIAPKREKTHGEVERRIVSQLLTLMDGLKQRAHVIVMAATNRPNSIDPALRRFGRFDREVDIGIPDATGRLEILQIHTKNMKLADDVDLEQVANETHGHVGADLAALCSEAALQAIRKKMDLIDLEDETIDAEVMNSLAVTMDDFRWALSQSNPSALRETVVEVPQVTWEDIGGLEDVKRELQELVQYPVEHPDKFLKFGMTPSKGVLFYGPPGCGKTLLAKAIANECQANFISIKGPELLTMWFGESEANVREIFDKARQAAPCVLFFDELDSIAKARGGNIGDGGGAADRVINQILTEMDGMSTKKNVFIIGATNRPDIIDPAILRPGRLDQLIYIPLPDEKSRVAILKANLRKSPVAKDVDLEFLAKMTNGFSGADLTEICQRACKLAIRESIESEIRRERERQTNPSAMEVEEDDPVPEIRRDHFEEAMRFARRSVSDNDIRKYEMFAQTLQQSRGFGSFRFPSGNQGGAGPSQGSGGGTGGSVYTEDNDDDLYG

Row | SMILES | IC50 [nM]
1 | CC(C)N1CCN(CCNC2CCN(c3cncc(-c4cc5ccccc5[nH]4)c3)CC2)CC1 | 8000
2 | CC(C)N1CCN(CCNC2CCN(c3cccc(-c4cc5ccc(N)cc5[nH]4)c3)CC2)CC1 | 5200
3 | c1ccc(CNC2CCN(c3cccc(-c4cc5ccccc5[nH]4)c3)CC2)nc1 | 1000
4 | Cc1ccc(N2CCC(NCC3(N4CCN(C(C)C)CC4)CCC3)CC2)cc1-c1cc2cc(F)ccc2[nH]1 | 320
5 | CN1CCC(NC2CCN(c3cccc(-c4cc5cc(C#N)ccc5[nH]4)c3)CC2)CC1 | 130
6 | CC(C)N1CCC(NC2CCN(c3cccc(-c4cc5cc(S(=O)(=O)NC(C)(C)C)ccc5[nH]4)c3)CC2)CC1 | 14000
7 | CC(C)N1CCN(CCCNC2CCN(c3cccc(-c4cc5ccccc5[nH]4)c3)CC2)CC1 | 370
8 | CC(C)N1CCN(CCNC2CCN(c3cccc(-c4cc5cc(Cl)ccc5[nH]4)c3)CC2)CC1 | 120
9 | CC(C)N1CCN(CCNC2CCN(c3cccc(-c4cc5ccccc5o4)c3)CC2)CC1 | 20000
10 | CC(C)N1CCN(CCNC2CCN(c3cccc(-c4cc5cc(F)c(F)cc5[nH]4)c3)CC2)CC1 | 330
11 | CC(C)N1CCN(CCNC2CCN(c3cccc(-c4cc5cc([N+](=O)[O-])ccc5[nH]4)c3)CC2)CC1 [drawing 222] | 36
12 | CCC(C)N1CCN(CCCNC2CCN(c3cccc(-c4cc5ccccc5[nH]4)c3)CC2)CC1 (centres unmarked) | 640
13 | CC(C)N1CCN(C2(CNC(=O)C3CCN(c4cccc(-c5cc6cc(F)ccc6[nH]5)c4)CC3)CCC2)CC1 | 3800
14 | N#Cc1ccc2[nH]c(-c3cccc(N4CCC(NCc5ccccc5)CC4)c3)cc2c1 | 430
15 | Cc1c(-c2cccc(N3CCC(NCCN4CCN(C(C)C)CC4)CC3)c2)[nH]c2ccccc12 | 12000
16 | N#Cc1ccc2[nH]c(-c3cccc(N4CCC(NCc5cccnc5)CC4)c3)cc2c1 | 290
17 | CN1[C@@H]2CCC[C@H]1C[C@@H](NC1CCN(c3cccc(-c4cc5ccccc5[nH]4)c3)CC1)C2 | 1300
18 | CC(C)N1CCN(CCNC2CCN(c3cccc(-c4cc5cnccc5[nH]4)c3)CC2)CC1 | 3800
19 | CN1CCN(C2(CNC3CCN(c4cccc(-c5cc6ccccc6[nH]5)c4)CC3)CCCCC2)CC1 | 260

Row | SMILES | IC50 [nM]
20 | COC(=O)CCNC1CCN(c2cccc(-c3cc4ccccc4[nH]3)c2)CC1 | 1000
21 | CC(C)N1CCN(C(=O)CCNC2CCN(c3cccc(-c4cc5cc(C#N)ccc5[nH]4)c3)CC2)CC1 | 150
22 | CN1CCN(CC2(NC3CCN(c4cccc(-c5cc6ccccc6[nH]5)c4)CC3)CC2)CC1 | 440
23 | Cc1ccc(N2CCC(NCCN3CCN(C(C)C)CC3)CC2)cc1-c1[nH]c2ccccc2c1C | 23000
24 | CN1CCN(CCNC2CCN(c3cccc(-c4cc5ccccc5[nH]4)c3)CC2)CC1 | 380
25 | CC(C)N1CCN(CCNC2CCN(c3cccc(NC(=O)OCc4ccccc4)c3)CC2)CC1 | 1700
26 | CC(C)N1CCN(C2(CNC3CCN(c4cccc(-c5cc6cc(F)ccc6[nH]5)c4)CC3)CCC2)CC1 | 130
27 | Cn1ncnc1CCNC1CCN(c2cccc(-c3cc4ccccc4[nH]3)c2)CC1 | 810
28 | CC(C)N1CCN(CCNC2CCN(c3cccc(-c4cc5cc(C#N)ccc5[nH]4)c3)CC2)CC1 | 26
29 | O=S1(=O)CCN(CCNC2CCN(c3cccc(-c4cc5ccccc5[nH]4)c3)CC2)CC1 | 700
30 | CN(C)CCNC1CCN(c2cccc(-c3cc4cc(C#N)ccc4[nH]3)c2)CC1 | 460
31 | Cc1ncncc1NC(=O)c1cccc(N2CCC(NCCN3CCN(C(C)C)CC3)CC2)c1 | 23000
32 | c1ccc(CN2CCN(CCNC3CCN(c4cccc(-c5cc6ccccc6[nH]5)c4)CC3)CC2)cc1 | 300
33 | COC(=O)c1ccc2[nH]c(-c3cccc(N4CCC(NC5CCN(C(C)C)CC5)CC4)c3)cc2c1 | 510
34 | CC(C)N1CCN(CCNC2CCN(c3cccc(-c4cc5cc(OC(F)(F)F)ccc5[nH]4)c3)CC2)CC1 | 3700
35 | Cc1c(-c2cc3ccccc3[nH]2)cccc1N1CCC(NCCN2CCN(C(C)C)CC2)CC1 | 14000
36 | Cn1ncnc1CCNC1CCN(c2cccc(-c3cc4cc(F)c(F)cc4[nH]3)c2)CC1 | 2200
37 | CC(C)N1CCN(CCNC2CCN(c3ccc(F)c(-c4cc5ccccc5[nH]4)c3)CC2)CC1 | 410
38 | CC(C)N1CCC(NC(=O)C2CCN(c3cccc(-c4cc5cc(F)ccc5[nH]4)c3)CC2)CC1 | 3900

Further lines, results first:

Row | IC50 [nM] | SMILES
39 | 720 | c1ccc(CCNC2CCN(c3cccc(-c4cc5ccccc5[nH]4)c3)CC2)nc1
40 | 170 | c1cc(-c2cc3ccccc3[nH]2)cc(N2CCC(NCCN3CCN(CC4CC4)CC3)CC2)c1
41 | 7580 | CC(C)N1CCN(CCNC(=O)C=C2CCN(c3cccc(-c4cc5ccccc5[nH]4)c3)CC2)CC1
42 | 9700 | O=C(Nc1ccccn1)C1CCN(c2cccc(-c3cc4cc(F)ccc4[nH]3)c2)CC1
43 | 140 | CC(C)N1CCN(C(=O)CCNC2CCN(c3cccc(-c4cc5ccccc5[nH]4)c3)CC2)CC1
44 | 100 | CC(C)N1CCN(CCNC2CCN(c3cccc(-c4cc5cc(O)ccc5[nH]4)c3)CC2)CC1
45 | 8600 | CC(C)N1CCC(NC2CCN(c3cccc(-c4cc5cc(S(N)(=O)=O)ccc5[nH]4)c3)CC2)CC1
46 | 300 | COCCN1CCN(CCNC2CCN(c3cccc(-c4cc5ccccc5[nH]4)c3)CC2)CC1
47 | 13600 | CC(C)N1CCN(CCNC2CCN(C(=O)c3cccc(-c4cc5ccccc5[nH]4)c3)CC2)CC1
48 | 570 | CN(C)CCNC1CCN(c2cccc(-c3cc4ccccc4[nH]3)c2)CC1
49 | 320 | CN1CCN(C(=O)CCNC2CCN(c3cccc(-c4cc5cc(C#N)ccc5[nH]4)c3)CC2)CC1
50 | 15800 | CC(C)N1CCC(NC2CCN(c3nnc(-c4cc5cc(F)ccc5[nH]4)o3)CC2)CC1
51 | 11000 | CC(C)N1CCN(CCNC2CCN(c3cccc(-c4cc5c([nH]4)CCNC5)c3)CC2)CC1
52 | 140 | CN1CCN(C2(CNC3CCN(c4cccc(-c5cc6ccccc6[nH]5)c4)CC3)CCC2)CC1
53 | 680 | [N-]=[N+]=Nc1cccc(CNC2CCN(c3cccc(-c4cc5cc(F)ccc5[nH]4)c3)CC2)c1
54 | 1300 | FC(F)(F)CN1CCN(CCNC2CCN(c3cccc(-c4cc5ccccc5[nH]4)c3)CC2)CC1
55 | 86 | Cc1ccc(N2CCC(NCCN3CCN(C(C)C)CC3)CC2)cc1-c1cc2cc(C#N)ccc2[nH]1
56 | 2700 | c1ccc(CCNC2CCN(c3cccc(-c4cc5ccccc5[nH]4)c3)CC2)cc1
57 | 9300 | CC(C)N1CCN(CCNC2CCN(c3cccc(-c4[nH]c5ccc(F)cc5c4-c4c(-c5cccc(N6CCC(NCCN7CCN(C(C)C)CC7)CC6)c5)[nH]c5ccc(F)cc45)c3)CC2)CC1
58 | 110 | CN1CCN(C2(CNC3CCN(c4cccc(-c5cc6cc(Cl)ccc6[nH]5)c4)CC3)CCC2)CC1
59 | 4600 | CC(C)N1CCN(CCNC2CCN(c3cccc(-c4cc5ccc([N+](=O)[O-])cc5[nH]4)c3)CC2)CC1
60 | 670 | CCN(CC)C(=O)CCNC1CCN(c2cccc(-c3cc4cc(F)ccc4[nH]3)c2)CC1
61 | 5100 | CC(C)N1CCN(CCNC2CCN(c3cccc(-c4ccc5ccccc5c4)c3)CC2)CC1
62 | 1400 | c1cc(-c2cc3ccccc3[nH]2)cc(N2CCC(NCc3ccncc3)CC2)c1
63 | 800 | c1cc(-c2cc3ccccc3[nH]2)cc(N2CCC(NCCCN3CCOCC3)CC2)c1
64 | 7600 | CC(C)N1CCN(CC(=O)NC2CCN(c3cccc(-c4cc5ccccc5[nH]4)c3)CC2)CC1

Row | IC50 [nM] | SMILES
65 | 12000 | CC(C)N1CCN(CCOC2CCN(c3cccc(-c4cc5ccccc5[nH]4)c3)CC2)CC1
66 | 540 | CC(C)N1CCN(CCNC2CCN(c3cccc(-c4cc5ccc(F)cc5[nH]4)c3)CC2)CC1
67 | 380 | CN1CCC(NC2CCN(c3cccc(-c4cc5ccccc5[nH]4)c3)CC2)CC1
68 | 290 | CN1CCN(C(=O)CCNC2CCN(c3cccc(-c4cc5ccccc5[nH]4)c3)CC2)CC1
69 | 430 | CNC(=O)c1ccc2[nH]c(-c3cccc(N4CCC(NCCN5CCN(C(C)C)CC5)CC4)c3)cc2c1
70 | 22000 | Cc1c(-c2cccc(N3CCC(NC4CCN(C)CC4)CC3)c2)[nH]c2ccccc12
71 | 15 | CN1CCN(C2(CNC3CCN(c4cccc(-c5cc6cc(F)ccc6[nH]5)c4)CC3)CCC2)CC1
72 | 310 | c1cc(-c2cc3ccccc3[nH]2)cc(N2CCC(NCCN3CCNCC3)CC2)c1
73 | 1300 | Cn1ncnc1CCNC1CCN(c2cccc(-c3cc4cc(F)ccc4[nH]3)c2)CC1
74 | 630 | CNC(=O)CCNC1CCN(c2cccc(-c3cc4cc(F)ccc4[nH]3)c2)CC1
75 | 140 | C[C@@H]1CN(CCNC2CCN(c3cccc(-c4cc5ccccc5[nH]4)c3)CC2)C[C@H](C)N1C
76 | 370 | CC(C)N1CCN(CCNC2CCN(c3ccc4c(c3)-c3[nH]c5ccccc5c3CC4)CC2)CC1
77 | 450 | CN1CCN(C(C)(C)CNC2CCN(c3cccc(-c4cc5ccccc5[nH]4)c3)CC2)CC1
78 | 5300 | CC(C)N1CCN(CCNC2CCN(c3cccc(-c4cc5cc(F)cnc5[nH]4)c3)CC2)CC1
79 | 13000 | CN1CCN(C2CCN(c3cccc(-c4cc5ccccc5[nH]4)c3)CC2)CC1
80 | 6200 | CC(C)[C@H]1CC[C@H](NC2CCN(c3cccc(-c4cc5cc(C#N)ccc5[nH]4)c3)CC2)CC1
81 | 160 | N#Cc1ccc2[nH]c(-c3cccc(N4CCC(NCc5cccc(N=[N+]=[N-])c5)CC4)c3)cc2c1
82 | 4900 | CC(C)N1CCC(NC2CCN(c3cccc(-c4cc5cc(C#N)ccc5[nH]4)c3)CC2)CC1 [drawing 239]
83 | 1100 | CC(C)(C)OC(=O)N1CCCN(CCNC2CCN(c3cccc(-c4cc5ccccc5[nH]4)c3)CC2)CC1
84 | 26 | CN1CCN(C2(CNC3CCN(c4cccc(-c5cc6cc(C#N)ccc6[nH]5)c4)CC3)CCC2)CC1
85 | 11000 | Fc1ccc2[nH]c(-c3cccc(N4CCC(NCCc5c[nH]c6ccccc56)CC4)c3)cc2c1
86 | 4500 | Cc1ccc(N2CCC(NCCc3ncnn3C)CC2)cc1-c1cc2ccccc2[nH]1
87 | 800 | CC1CCN(CCNC2CCN(c3cccc(-c4cc5ccccc5[nH]4)c3)CC2)CC1
88 | 47 | CC(C)N1CCC(NC2CCN(c3cccc(-c4cc5cc(C#N)ccc5[nH]4)c3)CC2)CC1 [drawing 226]
89 | 25000 | CN1CCC(NC2CCN(c3cncc(-c4cc5ccccc5[nH]4)c3)CC2)CC1
